Active and inactive are the calls of the source. The calls are words filed in the database; no cut-off is given here.
Tested on: Acanthamoeba polyphaga
Assay: Amoebicidal activity against Trophozoites of Acanthamoeba polyphaga 5SU assessed as reduction in killing time at 10 mM in phosphate buffered saline at pH 5 by hemocytometer using trypan blue stain in presence of 160 mM beta-alanine
Type: functional, organism-based

For O=S(=O)(O)CCNCl, which Activity is on record?
The Activity was “inactive”.
